This note sets out measurements from patent US20250312469A1 (CANGET BIOTEKPHARMA, priority 2024, published 2025).

The structures appear in SMILES notation. “Also recorded” adds a separate entry of the source. Some results are limits rather than exact numbers.

In one series the target is hERG (Homo sapiens, UniProt Q12809). As to the kind of experiment: cell-based. On the procedure:
All cell suspensions, buffers, and test compound solutions were at room temperature during the experiment. Briefly, Chinese hamster ovary (CHO) cells stably transfected with hERG (cell line obtained from Cytomyx, UK) were seeded in each well of a PatchPlate™ positioned over a small hole at the bottom of each well to form an electrical seal. The resistance of each seal was measured via a common ground electrode in the intracellular compartment and individual electrodes placed into each of the upper wells. Electrical access to the cell was then achieved by circulating a perforating agent, amphotericin B, underneath the PatchPlate™. The hERG channels were activated by applying a depolarizing step to +40 mV for 5 s and then clamped at […] for 4 s to elicit the hERG tail current, before returning to […] for 0.3 s. […] Each concentration was tested in 4 replicate wells on the PatchPlate™.
All cell suspensions, buffers and test compound solutions were at room temperature during the experiment. (2) The cells used were Chinese hamster ovary (CHO) cells stably transfected with hERG (cell line obtained from Cytomyx, UK). A single cell suspension was prepared in extracellular solution (Dulbecco's phosphate buffered saline with calcium and magnesium pH 7.2) and aliquots added automatically to each well of a PatchPlate™. The cells were then positioned over a small hole at the bottom of each well by applying a vacuum beneath the plate to form an electrical seal. The vacuum was applied through a single compartment common to all wells which was filled with intracellular solution (buffered to pH 7.2 with HEPES). The resistance of each seal was measured via a common ground electrode in the intracellular compartment and individual electrodes placed into each of the upper wells. Electrical access to the cell was then achieved by circulating a perforating agent, amphotericin B, underneath the PatchPlate™. (3) The pre compound hERG current was then measured. […] The hERG channels were then activated by applying a depolarizing step to +40 mV for 5 sec and then clamped at […] for 4 sec to elicit the hERG tail current, before returning to […] for 0.3 sec. […] (5) The IonWorks™ HT instrument automatically added test compound dilutions to the upper wells of the PatchPlate™ from a 96 well microtitre plate. The test compound was left in contact with the cells for 300 sec before recording currents using the same voltage step protocol as in the pre compound scan. […] (6) Each concentration was tested in 4 replicate wells on the PatchPlate™ (maximum of 24 data points).
The percentage inhibition was calculated using the following equation: […]

In series [1] the target is T1, bovine serum albumin (BSA) (Bos taurus, UniProt P02769).
T1 construct: purchased EMD (Billerica, MA)
T1 sequence (P02769 25-607): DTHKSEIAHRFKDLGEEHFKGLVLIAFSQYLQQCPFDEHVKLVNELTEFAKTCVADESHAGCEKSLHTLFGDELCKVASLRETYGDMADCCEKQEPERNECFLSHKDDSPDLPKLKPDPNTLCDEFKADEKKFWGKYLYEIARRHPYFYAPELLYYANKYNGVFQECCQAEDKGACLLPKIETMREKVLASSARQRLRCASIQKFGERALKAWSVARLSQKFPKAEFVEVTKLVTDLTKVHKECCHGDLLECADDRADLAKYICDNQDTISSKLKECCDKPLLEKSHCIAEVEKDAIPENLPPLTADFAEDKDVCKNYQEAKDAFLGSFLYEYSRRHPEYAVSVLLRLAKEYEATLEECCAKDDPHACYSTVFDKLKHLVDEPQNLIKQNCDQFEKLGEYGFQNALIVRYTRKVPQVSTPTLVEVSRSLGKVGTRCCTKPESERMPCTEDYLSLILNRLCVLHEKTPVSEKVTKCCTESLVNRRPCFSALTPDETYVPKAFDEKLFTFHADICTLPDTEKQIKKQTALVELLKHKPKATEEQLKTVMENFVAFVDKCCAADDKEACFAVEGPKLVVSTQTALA
The series can be described thus: ITC, BSA control protein. The class given is binding. Here is the method: (2) Preparation of Flag-DDX5, Flag-USP2, Flag-UbE2T and Flag-Top1 protein solutions (>360 μL/sample), respectively, containing 10 μM of Flag-DDX5, Flag-USP2, Flag-UbE2T or Flag-Top1 proteins in 1×PBS (pH7.4) and 8% DMSO from protein stocks in 1× PBS (the same solution was also prepared for BSA).
(3) preparation of washing/diluting solution (>2.5 mL/sample) containing 1× PBS (pH7.4) and 8% DMSO.
(4) ITC assay was performed using the auto-iTC200 instrument (MicroCal, GE). A protein solution (Flag-DDX5, Flag-USP2, Flag-UbE2T, Flag-Topl or BSA) with defined concentration (10 μM) in a volume of 360 μL in 1×PBS (pH7.4) containing 8% DMSO was loaded into the calorimeter cell as the Macromolecule (M). […] At each injection, the program calculates [M]t and [X]t (total protein and total ligand at that injection). The binding constant (KD)), binding stoichiometry (n), and thermodynamic parameters (AH and AS) were determined by fitting the titration curve to a one-site binding mode, using the Origin software provided by the manufacturer.

The format of series [2] is physicochemical. The following applies: solid state of powder.
Procedure: Laboratory XRPD patterns from the samples will be collected at 25° C. The diffraction data were collected over the angular range of 2θ=3°−40° with a step size of 2θ=0.02° and accounting time of 0.12 s/step.

Sequence of hERG (Q12809 whole entry): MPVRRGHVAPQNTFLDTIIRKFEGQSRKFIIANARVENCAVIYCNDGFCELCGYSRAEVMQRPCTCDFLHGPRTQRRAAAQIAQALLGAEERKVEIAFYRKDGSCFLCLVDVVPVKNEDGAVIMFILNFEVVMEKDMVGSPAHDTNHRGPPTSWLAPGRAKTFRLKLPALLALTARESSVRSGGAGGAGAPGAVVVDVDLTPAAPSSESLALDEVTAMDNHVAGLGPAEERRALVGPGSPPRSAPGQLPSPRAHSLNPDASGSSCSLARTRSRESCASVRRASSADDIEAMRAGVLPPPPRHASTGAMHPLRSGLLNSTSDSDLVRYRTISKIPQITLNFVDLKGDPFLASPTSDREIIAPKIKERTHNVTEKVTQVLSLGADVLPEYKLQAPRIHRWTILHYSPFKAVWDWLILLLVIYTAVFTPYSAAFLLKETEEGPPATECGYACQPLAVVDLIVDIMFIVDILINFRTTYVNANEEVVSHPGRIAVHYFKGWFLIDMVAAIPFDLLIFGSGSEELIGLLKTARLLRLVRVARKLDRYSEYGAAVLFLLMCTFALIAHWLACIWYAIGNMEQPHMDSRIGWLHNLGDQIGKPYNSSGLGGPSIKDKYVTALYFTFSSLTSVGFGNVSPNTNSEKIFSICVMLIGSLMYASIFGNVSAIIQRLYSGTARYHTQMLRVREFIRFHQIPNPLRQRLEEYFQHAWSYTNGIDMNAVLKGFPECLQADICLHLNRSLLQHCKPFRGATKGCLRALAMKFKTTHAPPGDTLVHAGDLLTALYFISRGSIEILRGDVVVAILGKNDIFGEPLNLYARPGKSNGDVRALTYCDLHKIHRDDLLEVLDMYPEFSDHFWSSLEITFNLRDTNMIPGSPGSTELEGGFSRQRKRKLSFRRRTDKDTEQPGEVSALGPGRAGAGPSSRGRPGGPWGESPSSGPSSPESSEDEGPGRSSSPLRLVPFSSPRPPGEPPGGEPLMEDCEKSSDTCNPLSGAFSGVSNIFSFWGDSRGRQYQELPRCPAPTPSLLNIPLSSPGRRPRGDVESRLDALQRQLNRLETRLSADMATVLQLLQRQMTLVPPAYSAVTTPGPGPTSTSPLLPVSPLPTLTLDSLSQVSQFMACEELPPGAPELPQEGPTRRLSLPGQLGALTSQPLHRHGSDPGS

In turn, `CCC1(O)C(=O)OCc2c1cc1n(c2=O)Cc2cc3cc4c(cc3nc2-1)OCO4` (stereo not shown) [FL118] showed an IC50 against hERG of more than 1000 nM. Besides, the “effect on hERG activity” value on hERG (CHO cells stably transfected with hERG, FL118 3-1000 nM) is “no inhibitory effects; also recorded: does not exhibit an inhibition of hERG activity”. Also, on hERG (human, pH 7.2), the inhibition at 300 s, 0.003 µM turned out to be 14.8%; the inhibition at 300 s, 0.01 µM stood at 18.7%; the inhibition at 300 s, 0.03 µM stood at 5.6%; the inhibition at 300 s, 0.1 µM was -5.2%. On hERG (human, pH 7.2), the inhibition at 300 s, 0.3 µM was -2.9% and the inhibition at 300 s, 1 µM is 19.9%. For the same compound, in series [1], the “binding to BSA” value was “no binding”. Further, the XRPD result in series [2] was “Weak crystal”.

In general, IC50 refers to the concentration that gives 50% inhibition. Lower therefore signals greater potency in that assay. As a reminder, the inhibition is the relative decrease from the control value, in per cent.
